Measured values: patent US12187706B2, “NLRP3 modulators” (INNATE TUMOR IMMUNITY, INC., priority 2019, dated 2025)

Each compound was assayed against T1, NLRP3 (Homo sapiens, UniProt Q96P20) (assay: Measurement of IL-1β production in PMA-differentiated THP-1 cells (NLRP3 hIL1B)).
T1 construct: host or cells: PMA-differentiated THP-1 cells
T1 sequence (Q96P20 whole entry): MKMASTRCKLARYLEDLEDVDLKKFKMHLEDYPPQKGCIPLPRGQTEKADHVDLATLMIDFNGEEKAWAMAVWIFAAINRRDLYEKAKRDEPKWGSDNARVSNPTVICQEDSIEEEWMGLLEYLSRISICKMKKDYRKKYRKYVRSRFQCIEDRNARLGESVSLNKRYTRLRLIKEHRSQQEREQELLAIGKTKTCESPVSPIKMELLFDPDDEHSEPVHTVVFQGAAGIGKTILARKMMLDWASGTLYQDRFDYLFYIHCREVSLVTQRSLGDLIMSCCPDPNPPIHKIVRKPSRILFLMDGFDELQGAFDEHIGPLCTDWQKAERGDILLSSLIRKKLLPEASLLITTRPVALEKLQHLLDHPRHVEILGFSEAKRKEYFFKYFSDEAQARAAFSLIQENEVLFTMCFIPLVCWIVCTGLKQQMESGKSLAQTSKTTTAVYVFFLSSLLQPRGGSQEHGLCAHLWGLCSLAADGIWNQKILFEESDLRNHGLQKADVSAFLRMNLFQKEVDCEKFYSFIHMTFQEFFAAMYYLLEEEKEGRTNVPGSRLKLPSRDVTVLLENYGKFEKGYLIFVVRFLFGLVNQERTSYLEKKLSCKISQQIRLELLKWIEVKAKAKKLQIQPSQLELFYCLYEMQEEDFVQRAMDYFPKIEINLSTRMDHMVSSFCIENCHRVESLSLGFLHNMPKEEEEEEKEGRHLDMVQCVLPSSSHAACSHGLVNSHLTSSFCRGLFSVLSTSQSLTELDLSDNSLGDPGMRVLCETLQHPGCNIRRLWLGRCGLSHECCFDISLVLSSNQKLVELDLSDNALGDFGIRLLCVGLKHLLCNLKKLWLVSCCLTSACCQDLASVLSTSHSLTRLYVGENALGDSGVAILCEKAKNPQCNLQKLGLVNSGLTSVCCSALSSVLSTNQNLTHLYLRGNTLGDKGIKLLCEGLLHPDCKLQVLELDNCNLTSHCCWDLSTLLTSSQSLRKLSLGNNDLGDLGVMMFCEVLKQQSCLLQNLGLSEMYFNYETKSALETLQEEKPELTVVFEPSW
Format: cell-based
Procedure: Measurement of IL-1β Production in PMA-Differentiated THP-1 Cells
THP-1 cells were purchased from the American Type Culture Collection and sub-cultured according to instructions from the supplier. Prior to experiments, cells were cultured in RPMI 1640 containing 10% heat inactivated FBS, penicillin (100 units/ml) and streptomycin (100 μg/ml), and maintained in log phase prior to experimental setup. Prior to the experiment THP-1 were treated with PMA (Phorbol 12-myristate 13-acetate) (10 μg/ml) for 24 hours. The day of the experiment the media was removed and attaching cells were treated with trypsin for 2 minutes, cells were then collected, washed with PBS (phosphate buffer saline), spin down, resuspended in 2% heat inactivated FBS with RPMI at a concentration of 1×10^6 cells/ml, and 100 μl was plated in a 96 well plate. Compounds were dissolved in dimethyl sulfoxide (DMSO) and added to the culture medium to achieve desired concentration (e.g. 100, 30, 10, 3, 1, 0.3 or 0.1 μM). Cells were incubated with compounds for 4 hours. Cell free supernatant was collected and the production of IL-1β was evaluated by ELISA. A vehicle only control was run concurrently with each experiment. Final DMSO concentration was 1%.
Measurement of IL-1β Production in PMA-Differentiated THP-1 Cells (Alternative Procedure)
THP-1 cells were purchased from the American Type Culture Collection and sub-cultured according to instructions from the supplier. Prior to experiments, cells were cultured in RPMI 1640 containing 10% heat inactivated FBS, penicillin (100 units/ml), streptomycin (100 μg/ml), HEPES (10 mM) and sodium pyruvate (1 mM) and maintained in log phase prior to experimental setup. Prior to the experiment, THP-1 cells were treated with PMA (Phorbol 12-myristate 13-acetate) (20 μg/ml) overnight. The day of the experiment, the media was removed and attached cells were treated with trypsin for 2 minutes, cells were then collected, washed with PBS (phosphate buffer saline), pelleted by centrifugation and resuspended in 2% heat inactivated FBS with RPMI at a concentration of 50,000 cells/well in a 384 well plate. Cell free supernatant was collected and the production of IL-1β was evaluated by ELISA. Compounds were dissolved in dimethyl sulfoxide (DMSO) and added to the culture medium to achieve desired concentration (e.g. 100, 30, 10, 3, 1, 0.3 or 0.1 μM). Cells were incubated with compounds for 2 hours. A vehicle only control was run concurrently with each experiment. Final DMSO concentration was 1%.
Measurement of IL-1β Production—hTRF Protocol (Second Alternative Procedure)
Serial dilutions of compounds in DMSO were added to low volume 384 well plates at 100 nl/well using an ECHO 550 acoustic dispenser (Labcyte) to achieve final starting concentration of 10 μM in assay.
THP-1 cells in RPMI (Gibco, 11875) media with 10% FBS at a density of 1×10^6 cell/ml in a T175 flask were treated with a final concentration of phorbol 12-myristate 13-acetate (PMA) (Sigma, P1585) of 50 ng/ml overnight at 37° C. at 5% CO2 for differentiation. Cells were harvested the next day after rinsing well with dPBS using 0.5% trypsin. A cell solution was prepared of 1×10^6 cells/ml for 50,000 cells in 50 μl/well in RPMI media with 2% FBS. Cells were plated using a multichannel pipette onto the compound dilutions in Greiner, 384 well, black clear bottom tissue culture treated plates (781090). The plates were incubated in 37° C. incubator at 5% CO2 for 2 hours.
After the 2 hour incubation, the cell plates were spun in the centrifuge for 5 minutes at 1200 rpm. Using the Felix (CyBio), 8 μl of the supernatant was transferred to 384 well, low volume, white proxy plates. (Perkin Elmer, 6008230). A human IL1beta hTRF kit was used to analyze the supernatant (CISBIO, 62HIL1BPEG). The kit instructions were followed for preparing the IL1Beta standard curve and then the antibodies from the kit were diluted 1:40 rather than 1:20 as kit instructed.
In the case of `CC(C)(O)C(O)CNc1nc(N)nc2cc(-c3ccn[nH]3)ccc12` (racemic) [Example 8, rac-1-((2-amino-7-(1H-pyrazol-5-yl)quinazolin-4-yl)amino)-3-methylbutane-2,3-diol], the EC50 is reported as 2150 nM. For `CC(O)(CO)CNc1nc(N)nc2cc(-c3ccn[nH]3)ccc12` (racemic) [Example 11, rac-3-((2-amino-7-(1H-pyrazol-5-yl)quinazolin-4-yl)amino)-2-methylpropane-1,2-diol], the EC50 was 1140 nM. `Nc1nc(N[C@H]2CCC[C@@H](O)C2)c2c(F)cc(-c3cc[nH]n3)cc2n1` (racemic) [Example 16, cis-3-((2-amino-5-fluoro-7-(1H-pyrazol-3-yl)quinazolin-4-yl)amino)cyclohexan-1-ol] was tested, and the EC50 was 780 nM. `Nc1nc(N[C@H]2CCC[C@H](O)C2)c2c(F)cc(-c3cc[nH]n3)cc2n1` (racemic) [Example 17, trans-3-((2-amino-5-fluoro-7-(1H-pyrazol-3-yl)quinazolin-4-yl)amino)cyclohexan-1-ol] was tested, and the EC50 was 950 nM. `Nc1nc(N[C@@H]2COC[C@H]2O)c2ccc(-c3ccn[nH]3)cc2n1` (racemic) [Example 25, trans-4-((2-amino-7-(1H-pyrazol-5-yl)quinazolin-4-yl)amino)tetrahydrofuran-3-ol] showed an EC50 of 720 nM. In the case of `Nc1nc(N[C@H]2CCCC[C@H]2CO)c2ccc(-c3ccn[nH]3)cc2n1` (racemic) [Example 57], the EC50 is reported as 800 nM. `Nc1nc(NC[C@@H]2CCCC[C@@H]2O)c2ccc(-c3ccn[nH]3)cc2n1` (racemic) [Example 77] was tested, and the EC50 was 650 nM. Work on `C[C@]1(O)CC[C@@H](Nc2nc(N)nc3cc(-c4ccn[nH]4)ccc23)C1` (racemic) [Example 107] yielded an EC50 of 670 nM. `C[C@@]1(O)CC[C@@H](Nc2nc(N)nc3cc(-c4ccn[nH]4)ccc23)C1` (racemic) [Example 108] gave an EC50 of 4170 nM. Compound `Nc1nc(NC2C[C@@H](O)[C@H](O)C2)c2ccc(-c3ccn[nH]3)cc2n1` (racemic) [Example 109] has an EC50 of 1950 nM. `Nc1nc(N[C@@H]2CC[C@@H](O)[C@@H]2O)c2ccc(-c3ccn[nH]3)cc2n1` (racemic) [Example 110] was tested, and the EC50 was 640 nM. In the case of `Nc1nc(N[C@H]2C[C@@H](O)C[C@@H]2O)c2ccc(-c3cc[nH]n3)cc2n1` (racemic) [Example 117], the EC50 is reported as 1560 nM. `Nc1nc(N[C@H]2C[C@H](O)C[C@@H]2O)c2ccc(-c3cc[nH]n3)cc2n1` (racemic) [Example 118] gave an EC50 of 980 nM. In the case of `CO[C@@H]1C[C@@H](Nc2nc(N)nc3cc(-c4ccn[nH]4)ccc23)C[C@H]1O` (racemic) [Example 141, rac-(1R,2R,4S)-4-((2-amino-7-(1H-pyrazol-5-yl)quinazolin-4-yl)amino)-2-methoxycyclopentan-1-ol], the EC50 is reported as 3650 nM. With `Nc1nc(NCC2CCC(=O)N2)c2ccc(-c3ccn[nH]3)cc2n1` (single isomer, unassigned) [Example 5, 5-(((2-amino-7-(1H-pyrazol-5-yl)quinazolin-4-yl)amino)methyl)pyrrolidin-2-one] the EC50 was 13000 nM. In the case of `Nc1nc(NCC2CCC(=O)N2)c2ccc(-c3ccn[nH]3)cc2n1` (single isomer, unassigned) [Example 6, 5-(((2-amino-7-(1H-pyrazol-5-yl)quinazolin-4-yl)amino)methyl)pyrrolidin-2-one], the EC50 is reported as 2110 nM. `CC(C)(O)C(O)CNc1nc(N)nc2cc(-c3ccn[nH]3)ccc12` (single isomer, unassigned) [Example 9, 1-((2-amino-7-(1H-pyrazol-5-yl)quinazolin-4-yl)amino)-3-methylbutane-2,3-diol] showed an EC50 of 1310 nM. Work on `CC(C)(O)C(O)CNc1nc(N)nc2cc(-c3ccn[nH]3)ccc12` (single isomer, unassigned) [Example 10, 1-((2-amino-7-(1H-pyrazol-5-yl)quinazolin-4-yl)amino)-3-methylbutane-2,3-diol] yielded an EC50 of 1860 nM. `Nc1nc(N[C@H]2COC[C@@H](O)C2)c2ccc(-c3ccn[nH]3)cc2n1` (single isomer, unassigned) [Example 12] gave an EC50 of 3920 nM. Compound `Nc1nc(N[C@H]2COC[C@@H](O)C2)c2ccc(-c3ccn[nH]3)cc2n1` (single isomer, unassigned) [Example 13] has an EC50 of 1180 nM. Work on `CCCC(CCO)Nc1nc(N)nc2cc(-c3ccn[nH]3)ccc12` (single isomer, unassigned) [Example 98, 3-((2-amino-7-(1H-pyrazol-5-yl)quinazolin-4-yl)amino)hexan-1-ol] yielded an EC50 of 860 nM. `CCCCC(CCO)Nc1nc(N)nc2cc(-c3ccn[nH]3)ccc12` (single isomer, unassigned) [Example 101, 3-((2-amino-7-(1H-pyrazol-5-yl)quinazolin-4-yl)amino)heptan-1-ol] showed an EC50 of 830 nM. For `Cn1ccnc1C(O)CNc1nc(N)nc2cc(-c3ccn[nH]3)ccc12` (single isomer, unassigned) [Example 149, 2-((2-amino-7-(1H-pyrazol-5-yl)quinazolin-4-yl)amino)-1-(1-methyl-1H-imidazol-2-yl)ethan-1-ol], the EC50 was 4420 nM. `Cn1ccnc1C(O)CNc1nc(N)nc2cc(-c3ccn[nH]3)ccc12` (single isomer, unassigned) [Example 150, 2-((2-amino-7-(1H-pyrazol-5-yl)quinazolin-4-yl)amino)-1-(1-methyl-1H-imidazol-2-yl)ethan-1-ol] showed an EC50 of 2450 nM. `Nc1nc(N[C@@H]2C[C@H]2c2cccnc2)c2ccc(-c3ccn[nH]3)cc2n1` (single isomer, unassigned) [Example 162, 7-(1H-pyrazol-5-yl)-N4-((trans)-2-(pyridin-3-yl)cyclopropyl)quinazoline-2,4-diamine] showed an EC50 of 240 nM. `Nc1nc(N[C@@H]2C[C@H]2c2cccnc2)c2ccc(-c3ccn[nH]3)cc2n1` (single isomer, unassigned) [Example 163, 7-(1H-pyrazol-5-yl)-N4-((trans)-2-(pyridin-3-yl)cyclopropyl)quinazoline-2,4-diamine] gave an EC50 of 650 nM. Work on `Nc1nc(N[C@H]2CCC[C@@H](O)C2)c2ccc(-c3ccn[nH]3)cc2n1` (single isomer, unassigned) [Example 178, (cis)-3-((2-amino-7-(1H-pyrazol-5-yl)quinazolin-4-yl)amino)cyclohexan-1-ol] yielded an EC50 of 660 nM. `Nc1nc(N[C@H]2CCC[C@@H](O)C2)c2ccc(-c3ccn[nH]3)cc2n1` (single isomer, unassigned) [Example 179, (cis)-3-((2-amino-7-(1H-pyrazol-5-yl)quinazolin-4-yl)amino)cyclohexan-1-ol] was tested, and the EC50 was 270 nM. In the case of `N#C[C@H]1CC[C@H](Nc2nc(N)nc3cc(-c4ccn[nH]4)ccc23)C1` (single isomer, unassigned) [Example 185, (trans)-3-((2-amino-7-(1H-pyrazol-5-yl)quinazolin-4-yl)amino)cyclopentane-1-carbonitrile], the EC50 is reported as 170 nM. `Nc1nc(NCC2CC2(F)F)c2ccc(-c3cc[nH]n3)cc2n1` (single isomer, unassigned) [Example 198, N4-((2,2-Difluorocyclopropyl)methyl)-7-(1H-pyrazol-3-yl)quinazoline-2,4-diamine] showed an EC50 of 70 nM. `Nc1nc(NCC2CC2(F)F)c2ccc(-c3cc[nH]n3)cc2n1` (single isomer, unassigned) [Example 199, N4-((2,2-Difluorocyclopropyl)methyl)-7-(1H-pyrazol-3-yl)quinazoline-2,4-diamine] was tested, and the EC50 was 80 nM. Compound `CC(CCO)Nc1nc(N)nc2cc(-c3ccn[nH]3)ccc12` (single isomer, unassigned) [Example 200, 3-((2-amino-7-(1H-pyrazol-5-yl)quinazolin-4-yl)amino)butan-1-ol] has an EC50 of 860 nM.
